Experimental data as given in patent US20110091577A1, “DRUG RELEASE COATINGS ON CALCUIM PHOSPHATE AND USES THEREOF” (priority 2008, published 2011).

Key:
staphylococci = conditions: literature value (de Neeling et al., 1998); cited from earlier work
[1] = Gentamicin release study, parallel release reactions in PBS buffer; format: physicochemical; conditions: FIG. 2A; 6.0 mg solid in 1.50 mL PBS, 37° C., pH 7.4
Experimental: Gentamicin and vancomycin loading and release are presented for a homopolymer system where the antibiotic gentamicin or vancomycin is bound to hydroxyapatite (HA) using commercially available poly-L-glutamate. This corresponds to the schematic illustrated in FIG. 1A. The experiment consisted of producing gentamicin or vancomycin adsorbed on poly-L-glutamate coated hydroxyapatite, and measuring the drug's rate of release into phosphate-buffered saline at 20° C. or 37° C. and pH 7.4, relative to a drug/hydroxyapatite control without the polymer. Gentamicin release study—Parallel release reactions: Gentamicin release rates from the experimental sample (G/pgHA) and control (G/HA) were measured by running multiple release reactions of each in parallel and stopping the reactions at different times. In each release sample 6.0 mg of solid was mixed in 1.50 mL of PBS buffer in an Eppendorf tube in a 37° C. shaker bath. Samples were removed from the bath at 15 minute intervals, centrifuged for 30 seconds, and the supernatant saved for later analysis.

Substance: gentamicin
- minimum inhibitory concentration required to kill staphylococci (staphylococci): 4 µg/mL
- time for adsorbed gentamicin to reach equilibrium with the buffer [1]: within one hour
